These results are taken from patent US20060148732A1, “Inhibition of NF-kappaB by triterpene compositions” (priority 2000, published 2006).

Data set [1] deals with mitochondrial fraction of Jurkat cells. Nature of the data set: Cytochrome c release in a cell free system. As to conditions: isolated mitochondria. It is filed as biochemical, human. How it is done:
Isolation of the Submitochondrial Fraction. Jurkat cells (1.5-2.0×10^7) were suspended in 1 ml sucrose buffer (250 mM sucrose in 30 mM Tris-HCl pH 7.4) and transferred into an N2 cavitation chamber (PARR Instruments Company, Moline, Ill.). The cells were subjected to N2 cavitation (300 psi for 5 min) as per the manufacturer's instructions. Under these conditions most of the cell membrane was disrupted with no change in the mitochondrial respiratory activity. Next, DNA and the nuclear fraction were removed by centrifugation (1500 g, 30 sec). The supernatant was further centrifuged (16000 g, 10 min) and the pellet was used as the submitochondrial fraction.
To observe if monoterpene/triterpenoid saponins directly affected mitochondria to induce apoptosis, experiments were carried out using avicin G in a cell free system. Mitochondria were isolated from Jurkat cells by the N2 cavitation method.

Another data set has as its system IκBα in Jurkat cells. Nature of the data set: Western blot of IκBα degradation. It is filed as cell-based, human. As to conditions: 2 μg/ml 16 hours, TNF 1 nM. The protocol:
(§1) Western Blot Analysis. Cytoplasmic and nuclear extracts of Jurkat cells treated with monoterpene/triterpene glycoside G1 were used to study the degradation of IκB and nuclear translocation of the p65 subunit of NF-κB respectively. Then, 50 μg of the cytoplasmic or nuclear protein were resolved on a 9% SDS-polyacrylamide gel and electrotransferred onto a nitrocellulose membrane. The membranes were probed with rabbit anti-IκBα or rabbit anti-p65 antibody (Santa Cruz, Calif.) followed with anti-rabbit antibody conjugated to horseradish peroxidase (HRPO). Protein bands were detected by chemiluminescence (ECL, Amersham).
A general note: In western blotting, separated proteins are transferred to a membrane and probed.

For data set [2], the system named is p65 subunit of NF-κB in Jurkat cells. In words: Western blot of nuclear translocation of p65. In kind it is cell-based, human. The conditions noted are these: 2 μg/ml 16 hours, TNF 1 nM. The protocol: as §1
The target in the next data set is T1, NF-κB (Homo sapiens, UniProt P19838+Q04206).
T1 construct: endogenous in cells; host or cells: Jurkat cells stimulated with TNF; nuclear extract
In words: In vitro NF-κB DNA binding (EMSA on extracts). In kind it is biochemical. How it is done:
(underline indicates NF-κB binding sites) for 15 min at 37° C. The incubation mixture included 3 μg of poly (dI:dC) in a binding buffer (25 mM HEPES, pH 7.9, 0.5 mM EDTA, 0.5 mM DTT, 1% NP-40, 5% glycerol, 50 mM NaCl). The DNA-protein complex was separated from the free oligonucleotide on a 7.5% polyacrylamide gel. The specificity of NF-κB-DNA binding was examined by competition with a double stranded mutated oligonucleotide, unlabeled oligonucleotide and by supershift of the band by anti-p65 antibody. The radioactive bands from dried gels were visualized on a PhosphoImager (Molecular Dynamics, Sunnyvale, Calif.) and quantitated using ImageQuant Software.
Monoterpene/triterpene glycoside G Inhibits NF-κB-DNA Binding. […] Therefore, the inventors analyzed the effect of monoterpene/triterpene glycoside G1 on the ability of active NF-κB to bind to DNA in a cell-free system. Nuclear extracts from TNF-stimulated cells were incubated with increasing concentrations of monoterpene/triterpene glycoside G1. […] Deoxycholate (DOC) is known to dissociate NF-κB from IκB, thereby making it available in an active nuclear form.
(In general: A gel shift assay detects complexes by their altered migration in electrophoresis.)

For a further data set, the system named is iNOS in RAW 264.7 cells. Nature of the data set: LPS-induced iNOS expression (western blot). The conditions noted are these: RAW264.7; 2 μg/ml 16 h; LPS 100 ng/ml. It is filed as cell-based. How it is done:
(§2) Induction and Measurement of iNOS and COX-2. RAW 264.7 cells (0.5×10^6/ml) were plated in 100 mm dishes and treated with F094 or monoterpene/triterpene glycosides (2 μg/ml) for 16 h. Next, the cells were exposed to 100 ng/ml of LPS for 24 h. Cells were lysed in a buffer containing 50 mM Tris, pH 7.4, 100 mM NaCl, 0.5% NP-40, 10 μg/ml leupeptin, 5 μg/ml aprotinin, and 100 μM PMSF. 70 μg of cellular protein were then loaded on a 7.5% SDS-polyacrylamide gel and electrotransferred onto a nitrocellulose membrane. Levels of iNOS and COX-2 were analyzed by Western blot analysis using rabbit anti-iNOS (Santa Cruz) and goat anti-COX-2 antibodies respectively.

Another data set concerns COX-2 in RAW 264.7 cells. In words: LPS-induced COX-2 expression (western blot). It is filed as cell-based. As to conditions: RAW264.7; 2 μg/ml 16 h; LPS 100 ng/ml. How it is done: as §2
Data set [3] can be described thus: Stability in solution during purification. It is filed as physicochemical. The conditions noted are these: dilute acid solutions vs water at 40° C. The text has this:
The fraction D (45% D1) from the PFP Prep column was first fractionated on a Waters C-18 column (25×100 mm). The mobile phase was 61% methanol in water with 0.1% TFA. […] A sample of D1 with 100% chromatographic purity (FIG. 35) was produced by further fractionation of the impure D1 on YMC C18-Aq column with 33% acetonitrile/water with 0.1% TFA as the mobile phase. […] Therefore, 0.1% TFA was included in solvents during the purification of D1.

T1 sequence (Q04206 whole entry): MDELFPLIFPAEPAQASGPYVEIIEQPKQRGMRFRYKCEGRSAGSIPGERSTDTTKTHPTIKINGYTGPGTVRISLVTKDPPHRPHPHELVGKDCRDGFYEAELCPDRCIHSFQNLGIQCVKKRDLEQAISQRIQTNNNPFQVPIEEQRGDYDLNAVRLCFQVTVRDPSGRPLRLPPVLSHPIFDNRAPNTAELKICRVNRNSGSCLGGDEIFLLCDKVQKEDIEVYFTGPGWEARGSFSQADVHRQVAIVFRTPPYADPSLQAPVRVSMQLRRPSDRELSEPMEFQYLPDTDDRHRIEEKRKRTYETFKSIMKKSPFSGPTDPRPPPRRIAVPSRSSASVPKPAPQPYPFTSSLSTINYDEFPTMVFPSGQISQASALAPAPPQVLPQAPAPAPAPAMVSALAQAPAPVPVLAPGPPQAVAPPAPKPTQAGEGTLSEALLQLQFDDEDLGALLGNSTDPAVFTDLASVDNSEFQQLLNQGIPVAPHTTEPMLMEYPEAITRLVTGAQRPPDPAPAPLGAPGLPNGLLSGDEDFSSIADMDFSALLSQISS
T1 sequence (P19838 1-433 limits assumed): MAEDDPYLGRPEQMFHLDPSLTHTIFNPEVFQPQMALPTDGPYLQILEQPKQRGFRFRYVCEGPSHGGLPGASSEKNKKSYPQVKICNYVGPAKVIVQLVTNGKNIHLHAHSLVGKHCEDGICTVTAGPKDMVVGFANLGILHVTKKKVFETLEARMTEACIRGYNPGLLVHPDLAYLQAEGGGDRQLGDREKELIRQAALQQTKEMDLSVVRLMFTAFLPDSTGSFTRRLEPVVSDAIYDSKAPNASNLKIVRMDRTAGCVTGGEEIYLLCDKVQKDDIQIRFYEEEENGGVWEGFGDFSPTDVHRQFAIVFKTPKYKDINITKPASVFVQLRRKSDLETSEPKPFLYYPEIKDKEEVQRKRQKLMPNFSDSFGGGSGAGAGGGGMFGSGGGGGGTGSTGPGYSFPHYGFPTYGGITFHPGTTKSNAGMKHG

As for `C=C[C@](C)(O)CC/C=C(\C)C(=O)O[C@H]1[C@H](O)[C@@H](O)[C@H](O[C@@](C)(C=C)CC/C=C(\CO)C(=O)O[C@H]2C[C@]3(C(=O)O[C@@H]4O[C@H](CO)[C@@H](O)[C@H](O)[C@H]4O[C@@H]4O[C@@H](C)[C@H](O[C@@H]5O[C@@H](CO)[C@H](O)[C@H]5O)[C@@H](O[C@@H]5O[C@H](CO)[C@@H](O)[C@H](O)[C@H]5O)[C@H]4O)[C@H](O)C[C@]4(C)C(=CC[C@@H]5[C@@]6(C)CC[C@H](O[C@@H]7O[C@H](CO[C@@H]8O[C@H](C)[C@H](O)[C@H](O)[C@H]8O[C@@H]8OC[C@@H](O)[C@H](O)[C@H]8O)[C@@H](O)[C@H](O)[C@H]7NC(C)=O)C(C)(C)[C@@H]6CC[C@]54C)[C@@H]3CC2(C)C)O[C@@H]1C` [Fraction G1], in data set [1] (2 μg/ml), the “peak of cytochrome c release” value lay within 5 to 10 min and the “start of cytochrome c release” value is “a minute”. In addition, the “concentration achieving most of the cytochrome c release” value in data set [1] (10 min) lay within 0.5 to 2.0 µg/mL. In addition, the “pattern of IκB degradation” value with IκBα in Jurkat cells is “no difference”. The “nuclear translocation of p65 subunit” value in data set [2] is “slows down nuclear translocation of the p65 subunit considerably”. Besides, at NF-κB (cytoplasmic extracts of treated cells), the “DNA binding of DOC (0.8%) activated NF-κB” value is on record as “decreased DNA binding”. Moreover, the “binding of NF-κB to DNA” value at NF-κB (nuclear extracts from TNF-stimulated cells, 30 min at 37° C.) is “inhibited the binding of NF-κB to DNA in a dose-dependent manner”. In the data set with iNOS in RAW 264.7 cells, the “levels of LPS-induced iNOS” value was “decreases the levels of LPS-induced iNOS and COX-2 sharply”. Further, the “levels of LPS-induced COX-2” value in the data set with COX-2 in RAW 264.7 cells is “decreases the levels of LPS-induced iNOS and COX-2 sharply”.

With `C=C[C@](C)(O)CC/C=C(\CO)C(=O)O[C@H]1[C@H](O)[C@@H](O)[C@H](O[C@@](C)(C=C)CC/C=C(\CO)C(=O)O[C@H]2C[C@]3(C(=O)O[C@@H]4O[C@H](CO)[C@@H](O)[C@H](O)[C@H]4O[C@@H]4O[C@@H](C)[C@H](O[C@@H]5O[C@@H](CO)[C@H](O)[C@H]5O)[C@@H](O[C@@H]5O[C@H](CO)[C@@H](O)[C@H](O)[C@H]5O)[C@H]4O)[C@H](O)C[C@]4(C)C(=CC[C@@H]5[C@@]6(C)CC[C@H](O[C@@H]7O[C@H](CO[C@@H]8O[C@H](C)[C@H](O)[C@H](O)[C@H]8O[C@@H]8OC[C@@H](O)[C@H](O)[C@H]8O)[C@@H](O)[C@H](O)[C@H]7NC(C)=O)C(C)(C)[C@@H]6CC[C@]54C)[C@@H]3CC2(C)C)O[C@@H]1C` [Fraction D1], the stability in solution entry in data set [3] is listed as “more stable in dilute acid solutions than in water”.
